According to BindingDB's records for doi:10.1021/jm00075a032 (University of Bologna, 1993):

Assays:
[1] = molecular target: T1, Muscarinic acetylcholine receptor M2 (Rattus norvegicus, UniProt P10980)
T1 sequence (P10980 whole entry): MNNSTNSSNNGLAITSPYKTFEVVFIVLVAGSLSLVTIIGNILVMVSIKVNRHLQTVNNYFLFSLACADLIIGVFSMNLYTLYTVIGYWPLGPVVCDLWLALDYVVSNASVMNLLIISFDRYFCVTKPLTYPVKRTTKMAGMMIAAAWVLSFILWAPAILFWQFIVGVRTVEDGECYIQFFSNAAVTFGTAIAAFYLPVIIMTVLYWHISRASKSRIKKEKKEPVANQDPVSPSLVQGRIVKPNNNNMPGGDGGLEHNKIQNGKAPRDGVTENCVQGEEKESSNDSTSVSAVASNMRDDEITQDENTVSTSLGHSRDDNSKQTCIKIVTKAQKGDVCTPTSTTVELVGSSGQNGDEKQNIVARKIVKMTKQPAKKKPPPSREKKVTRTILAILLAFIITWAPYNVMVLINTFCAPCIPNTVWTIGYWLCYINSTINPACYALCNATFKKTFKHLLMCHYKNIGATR

[2] = molecular target: T2, Muscarinic acetylcholine receptor M1 (Rattus norvegicus, UniProt P08482)
T2 sequence (P08482 whole entry): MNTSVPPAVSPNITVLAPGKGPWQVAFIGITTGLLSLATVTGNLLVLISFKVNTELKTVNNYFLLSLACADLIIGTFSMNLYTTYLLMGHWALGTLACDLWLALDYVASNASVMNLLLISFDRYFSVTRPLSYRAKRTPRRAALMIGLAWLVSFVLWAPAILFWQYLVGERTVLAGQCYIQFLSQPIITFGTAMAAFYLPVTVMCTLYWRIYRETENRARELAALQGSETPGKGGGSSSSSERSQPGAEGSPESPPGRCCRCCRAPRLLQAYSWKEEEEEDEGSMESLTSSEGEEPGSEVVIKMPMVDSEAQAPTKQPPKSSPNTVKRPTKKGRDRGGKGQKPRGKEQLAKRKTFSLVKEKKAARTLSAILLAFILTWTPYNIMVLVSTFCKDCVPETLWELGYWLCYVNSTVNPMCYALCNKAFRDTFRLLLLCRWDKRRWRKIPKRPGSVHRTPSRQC

[3] = molecular target: Muscarinic acetylcholine receptor M3 (Rattus norvegicus, UniProt P08483)
[4] = molecular target: T3, Muscarinic acetylcholine receptor M4 (Rattus norvegicus, UniProt P08485)
T3 sequence (P08485 whole entry): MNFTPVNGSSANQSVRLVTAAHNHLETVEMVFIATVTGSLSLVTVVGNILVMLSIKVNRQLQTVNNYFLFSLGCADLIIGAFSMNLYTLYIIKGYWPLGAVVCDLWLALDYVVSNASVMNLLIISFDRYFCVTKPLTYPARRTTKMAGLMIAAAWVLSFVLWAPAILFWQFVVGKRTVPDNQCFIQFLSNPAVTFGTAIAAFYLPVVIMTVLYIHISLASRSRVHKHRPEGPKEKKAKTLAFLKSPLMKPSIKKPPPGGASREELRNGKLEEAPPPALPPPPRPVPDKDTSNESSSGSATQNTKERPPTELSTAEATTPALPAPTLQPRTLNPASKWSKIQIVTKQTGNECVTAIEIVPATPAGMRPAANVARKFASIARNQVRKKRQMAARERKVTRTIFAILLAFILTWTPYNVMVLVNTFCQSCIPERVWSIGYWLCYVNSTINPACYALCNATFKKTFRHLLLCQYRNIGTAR

Chain of Muscarinic acetylcholine receptor M3 (P08483 whole entry): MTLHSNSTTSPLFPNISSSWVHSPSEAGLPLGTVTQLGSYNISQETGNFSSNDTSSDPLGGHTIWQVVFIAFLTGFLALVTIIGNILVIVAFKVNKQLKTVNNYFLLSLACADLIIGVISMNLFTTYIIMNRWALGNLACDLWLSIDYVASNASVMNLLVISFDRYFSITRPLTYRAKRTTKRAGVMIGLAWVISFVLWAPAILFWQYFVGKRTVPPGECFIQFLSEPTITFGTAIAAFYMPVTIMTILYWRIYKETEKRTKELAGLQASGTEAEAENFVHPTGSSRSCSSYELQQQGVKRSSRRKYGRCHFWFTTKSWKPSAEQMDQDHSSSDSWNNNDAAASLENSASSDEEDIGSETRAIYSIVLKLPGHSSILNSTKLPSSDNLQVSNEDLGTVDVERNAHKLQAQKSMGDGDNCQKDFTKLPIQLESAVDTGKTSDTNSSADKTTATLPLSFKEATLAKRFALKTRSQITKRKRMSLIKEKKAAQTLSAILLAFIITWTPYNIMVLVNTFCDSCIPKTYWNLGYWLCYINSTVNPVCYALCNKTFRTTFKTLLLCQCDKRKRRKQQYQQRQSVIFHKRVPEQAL

Structure (SMILES): CN(CCCCCCNCCCCCCCCNCCCCCCN(CN1c2ccccc2C(=O)Nc2cccnc21)CN1c2ccccc2C(=O)Nc2cccnc21)CN1c2ccccc2C(=O)Nc2cccnc21 [methoctramine analog 5]
- Ki [1]: 0.00029 µM
- Ki [2]: 0.0234 µM
- Ki [3]: 0.646 µM
- Ki [4]: 0.0117 µM
